Source: PMC5908160, “Inhibition of sperm motility in male macaques with EP055, a potential non-hormonal male contraceptive” (PLoS ONE, 2018)

Tested on: rhesus macaque (Macaca mulatta) sperm
Test: Sperm motility in rhesus males after i.v. infusion of EP055
Assay type: in vivo
Text: Semen was collected by direct penile stimulation with a P-T Electronics Model 303 PTE 110 Volt AC stimulator equipped with electrocardiogram pad electrodes (10–35 V, 20 ms duration, 18 pulses/sec) as previously described. Semen was collected weekly for 3 weeks to establish baseline parameters for each male. Samples were inspected visually to determine sperm motility and suitability for the study. Sperm motility data from male 28106 presented in S1 Table is representative of pre-treatment samples. Immediately after collection, the seminal plug was separated from the liquefied fraction, placed into a cryovial, flash frozen in liquid nitrogen, and stored at -80C until evaluation for drug levels. Spermatozoa were prepared by centrifugation (7 min, 200 g) of the liquid portion of the ejaculate and resuspending the sperm pellet in TALP-HEPES medium containing 0.3% bovine serum albumin at 37°C. An aliquot was taken to determine concentration using a hemocytometer, percent motility and forward progression as previously described. Baseline semen samples were collected from each male twice during the week prior to treatment. Semen was collected from each male 6–8 hr, 28–30 hr, and 78 hr post-infusion of low dose EP055 (75–80 mg/kg body weight) intravenously. After a one-week recovery period, a baseline semen sample was obtained, and the following week semen samples were collected as described above after an intravenous infusion of high dose EP055 (125–130 mg/kg).
Sperm were diluted in TALP-HEPES medium containing 0.3% bovine serum albumin to achieve 50-100 sperm per field. Videos were taken using an iPhone 6s Plus positioned 12 inches from a Dell model E170Sc 17-inch LCD monitor (1280 x 1024 pixels at 60 Hz, 0.264 mm) attached to an Olympus CK40 inverted microscope using 20x magnification (10x objective). The video camera collected images at a resolution of 1080 x 1920 pixels at 30 frames per second and 401 ppi with a typical contrast ratio of 1300:1 for at least 8 seconds. The pixel size was 1.2 microns and the videos in .mp4 or .mov format. Videos were converted to .avi format using Any Video Converter (version 6.06, http://www.anvsoft.com/any-video-converter-free, Ultimate Media Solutions, AnvSoft Inc). These files were uncompressed using VirtualDub (version 1.10.2, http://www.virtualdub.org/).
Images were analyzed using the MTrackJ plug in (version 1.5.1, https://imagescience.org/meijering/software/mtrackj/) for ImageJ (1.51K, https://fiji.sc/). Briefly, files were imported as uncompressed .avi files, converted to greyscale and saved as .TIFF files. Each image was calibrated by measuring a representative sperm head (acrosomal apex to midpiece) using the Straight Edge Tool, using 5.18 microns as the standard length of a Macaca mulatta sperm head. Approximately 50 sperm per video were manually tracked for the entire length of the track and the mean curvilinear velocity of each track calculated using the MEASURE function. Tracks used in the final analysis were a minimum of 0.4 seconds.
Prior to infusion of EP055, each male was sedated with ketamine by the surgical staff at ONPRC and transported to the operating room. After positioning in dorsal recumbency, the male was intubated and placed under inhalant (isoflurane) anesthesia. Bilateral intravenous catheters were placed in cephalic veins, one for infusion and one for back-up. A percutaneous arterial line was placed in the right femoral artery for direct blood pressure measurement. Invasive blood pressure, heart rate, SpO2, and respirations were monitored by the surgical staff throughout the procedure. Initially, the low doses of EP055 in 5% DMSO-PBS 7.6 was infused by i.v. at 75-80 mg/kg, using a Medfusion 3500 pump (Smiths Medical, St. Paul, MN), and was started at a low flow rate (0.6mg/kg/min). In 3 of 4 males, a 5-10% increase in blood pressure and heart rate were noted within the first 2-3 minutes of infusion of EP055. […]

[1] = high dose 125–130 mg/kg, post-infusion
[2] = male 25854, high dose 125–130 mg/kg, 6 hrs post-iv
[3] = male 25854, high dose 125–130 mg/kg, 30 hrs post-iv
[4] = male 25854, high dose 125–130 mg/kg, 78 hrs post-iv
[5] = male 25854, high dose 125–130 mg/kg, 318 hrs post-iv
[6] = male 25854, high dose 125–130 mg/kg, 390 hrs post-iv
[7] = male 25854, high dose 125–130 mg/kg, 558 hrs post-iv
[8] = male 25854, low dose 75–80 mg/kg, 6 hrs post-iv
[9] = male 25854, low dose 75–80 mg/kg, 30 hrs post-iv
[10] = male 25854, low dose 75–80 mg/kg, 78 hrs post-iv
[11] = male 25854, low dose 75–80 mg/kg, 1206 hrs post-iv
[12] = male 25854, low dose 75–80 mg/kg, 1254 hrs post-iv
[13] = male 28043, high dose 125–130 mg/kg, 6 hrs post-iv
[14] = male 28043, high dose 125–130 mg/kg, 28 hrs post-iv
[15] = male 28043, high dose 125–130 mg/kg, 78 hrs post-iv
[16] = male 28043, high dose 125–130 mg/kg, 360 hrs post-iv
[17] = male 28043, high dose 125–130 mg/kg, 408 hrs post-iv
[18] = male 28043, high dose 125–130 mg/kg, 528 hrs post-iv
[19] = male 28043, low dose 75–80 mg/kg, 6 hrs post-iv
[20] = male 28043, low dose 75–80 mg/kg, 30 hrs post-iv
[21] = male 28043, low dose 75–80 mg/kg, 78 hrs post-iv
[22] = male 28043, low dose 75–80 mg/kg, 480 hrs post-iv
[23] = male 28043, low dose 75–80 mg/kg, 648 hrs post-iv
[24] = male 28106, high dose 125–130 mg/kg, 6 hrs post-iv
[25] = male 28106, high dose 125–130 mg/kg, 30 hrs post-iv
[26] = male 28106, high dose 125–130 mg/kg, 78 hrs post-iv
[27] = male 28106, high dose 125–130 mg/kg, 318 hrs post-iv
[28] = male 28106, high dose 125–130 mg/kg, 390 hrs post-iv
[29] = male 28106, high dose 125–130 mg/kg, 558 hrs post-iv
[30] = male 28106, high dose 125–130 mg/kg, 894 hrs post-iv
[31] = male 28106, low dose 75–80 mg/kg, 6 hrs post-iv
[32] = male 28106, low dose 75–80 mg/kg, 30 hrs post-iv
[33] = male 28106, low dose 75–80 mg/kg, 78 hrs post-iv
[34] = male 28106, low dose 75–80 mg/kg, 342 hrs post-iv
[35] = male 28187, high dose 125–130 mg/kg, 8 hrs post-iv
[36] = male 28187, high dose 125–130 mg/kg, 30 hrs post-iv
[37] = male 28187, high dose 125–130 mg/kg, 78 hrs post-iv
[38] = male 28187, high dose 125–130 mg/kg, 414 hrs post-iv
[39] = male 28187, low dose 75–80 mg/kg, 6 hrs post-iv
[40] = male 28187, low dose 75–80 mg/kg, 30 hrs post-iv
[41] = male 28187, low dose 75–80 mg/kg, 78 hrs post-iv
[42] = male 28187, low dose 75–80 mg/kg, 582 hrs post-iv
[43] = male 28187, low dose 75–80 mg/kg, 678 hrs post-iv

COC(=O)NNc1nc(Nc2ccc(NC(C)=O)c(O)c2)nc(SCC(=O)O)n1 [EP055]
99%: F1 [14]
72.1 ± 12.4 um/sec: VCL ± SEM [14]
≤ 78 h: time at which recovery of sperm motility was obvious [1]
95%: F3+F4 [10] | F1 [37] | F1 [41] | F1 [42]
45%: F2 [32]
104.6 ± 6.9 um/sec: VCL ± SEM [2]
Yes: Clumps [3] | Clumps [10] | Clumps [13] | Clumps [14] | Clumps [17] | Clumps [20] | Clumps [21] | Clumps [24] | Clumps [25] | Clumps [26] | Clumps [27] | Clumps [28] | Clumps [29] | Clumps [31] | Clumps [32] | Clumps [33] | Clumps [35] | Clumps [36] | Clumps [40] | Clumps [41]
105.0 ± 5.8 um/sec: VCL ± SEM [34]
52.9 ± 3.0 um/sec: VCL ± SEM [35]
40%: F2 [29] | F2 [33]
55%: Static [4] | F1 [24] | Static [26]
135.8 ± 6.8 um/sec: VCL ± SEM [31]
40.5 ± 2.7 um/sec: VCL ± SEM [36]
1%: F1 [7]
87.3 ± 6.2 um/sec: VCL ± SEM [38]
25.4 ± 2.6 um/sec: VCL ± SEM [37]
more than 3 weeks: time necessary for sperm velocity to recover completely (rhesus)
109.4 ± 13.8 um/sec: VCL ± SEM [43]
78%: F3+F4 [30]
30%: Static [3] | Static [15] | F3+F4 [20] | Static [21] | F1 [27] | Static [29] | Static [31] | F1 [33] | Static [33] | F3+F4 [35]
85%: F3+F4 [38]
20%: F1 [4] | F1 [5] | F2 [5] | Static [6] | Static [8] | Static [12] | F1 [20] | F1 [21] | Static [22] | Static [24] | F1 [25] | F2 [26] | F2 [27] | Static [30] | F1 [31] | Static [43]
below 32%: normal sperm motility (low dose 75–80 mg/kg, by 30 hours post-infusion, mean of 4 animals)
72.8 ± 4.8 um/sec: VCL ± SEM [24]
2%: F1 [11] | F1 [30]
135.0 ± 12.6 um/sec: VCL ± SEM [18]
approximately 20%: sperm motility (high dose 125–130 mg/kg, within 6 hours post-infusion, mean of 4 animals)
80%: F2 [2] | F3+F4 [9] | F3+F4 [12] | F3+F4 [18] | F3+F4 [22] | F3+F4 [23] | F3+F4 [34] | F2 [36] | F3+F4 [43]
117.5 ± 16.3. um/sec: VCL ± SEM [15]
89.7 ± 6.3 um/sec: VCL ± SEM [33]
80.3 ± 6.9 um/sec: VCL ± SEM [26]
<1%: F1 [10] | F3+F4 [14]
101.7 ± 4.1 um/sec: VCL ± SEM [30]
9%: Static [7]
no normal motility was observed: normal motility (high dose 125–130 mg/kg, 30 hours post-infusion)
65%: F3+F4 [16] | F3+F4 [39]
Few: Clumps [4] | Clumps [8] | Clumps [15] | Clumps [19] | Clumps [38] | Clumps [39]
83%: F3+F4 [11]
5%: F1 [2] | F1 [9] | Static [10] | F1 [17] | F2 [18] | F1 [23] | F2 [25] | F3+F4 [32] | F1 [34] | Static [37] | Static [38] | F3+F4 [41] | F3+F4 [42]
35%: F1 [39]
10%: F1 [3] | F3+F4 [5] | F1 [6] | F1 [8] | F1 [15] | F1 [16] | F3+F4 [26] | F2 [28] | F1 [35] | Static [35] | F1 [36] | Static [36] | F1 [38] | F3+F4 [40]
70%: F3+F4 [6] | F3+F4 [8] | F3+F4 [17]
25%: F2 [4] | F1 [13] | Static [13] | Static [16] | Static [17] | Static [19] | F2 [24] | F3+F4 [27] | Static [27] | Static [28] | F1 [32] | Static [32]
15%: Static [2] | Static [9] | Static [11] | Static [18] | Static [23] | F1 [26] | F1 [28] | F1 [29] | F3+F4 [29] | Static [34]
severe sperm clumping: sperm clumping (post-infusion)
24 to 48 h: potential contraceptive window following administration (rhesus)
Fewer: Clumps [9] | Clumps [37]
93.2 ± 5.0 um/sec: VCL ± SEM [6]
50%: Static [5] | F3+F4 [13] | Static [20] | F2 [21] | F3+F4 [28] | F3+F4 [31] | F2 [35]
≤ 18 days: time to full recovery of sperm motility in all animals [1]
105.1 ± 7.0 um/sec: VCL ± SEM [32]
60%: F2 [3] | F3+F4 [15]
90%: F3+F4 [7] | Static [40]
67.5 ± 7.9 um/sec: VCL ± SEM [25]
75%: F3+F4 [19] | Static [25]
120.9 ± 4.8 um/sec: VCL ± SEM [3]
94.2 ± 5.0 um/sec: VCL ± SEM [4]
